The values that follow come from publication PMC9569995, “Study of Biological Activities and ADMET-Related Properties of Salicylanilide-Based Peptidomimetics” (International Journal of Molecular Sciences, 2022).

In general, MBC refers to the lowest tested concentration that kills the bacteria rather than only halting them. Low values mean greater bactericidal potency, high ones weaker bactericidal potency. For orientation: IC50 means the concentration that inhibits the measured activity by half. A lower IC50 goes with inhibition by little substance.

The structures appear in SMILES notation. ≈ marks a conversion by molar mass, not a printed value. Where “and” joins values, the source holds several entries; their conditions need not be identical. Equal values may be shown once. Read-outs that look alike come from different tables or passages of the source.

For series [1], the system named is vancomycin-resistant E. faecalis VRE 342B. Nature of the series: Determination of minimum bactericidal concentrations (agar aliquot subculture). To be noted: Enterococcus faecalis.
The next series relates to S. aureus ATCC 29213. As to the kind of experiment: MTT assay of bacterial viability (respiration). To be noted: for Conc.: lowest multiple of MBC with at least 70% inhibition of S. aureus viability / Conc.: lowest multiple of MIC with at least 70% inhibition of S. aureus viability: MTT, 24 h.
Series [2] concerns vancomycin-resistant E. faecalis VRE 342B. As to the kind of experiment: In vitro antibacterial evaluation, MIC by microtitration broth method. To be noted: Enterococcus faecalis, 24 h.
The subject of series [3] is methicillin-resistant S. aureus 63718. The description is as above. To be noted: Staphylococcus aureus, 24 h.
In series [4] the test system is vancomycin-resistant E. faecalis VRE 725B. As to the kind of experiment: Determination of minimum bactericidal concentrations (agar aliquot subculture). To be noted: Enterococcus faecalis.
Series [5] relates to methicillin-resistant S. aureus SA 3202. Described as above. As to conditions: Staphylococcus aureus.
Series [6] relates to Staphylococcus aureus ATCC 29213. Nature of the series: In vitro antibacterial evaluation, MIC by microtitration broth method. To be noted: ATCC29213, 24 h.
Series [7] in a line: Lipophilicity determination by HPLC. In kind it is physicochemical. As to conditions: for log D6.5: HPLC C18, MeOH 72%/acetate-buffered saline pH 6.5 28%; for log D7.4: HPLC C18, MeOH 72%/acetate-buffered saline pH 7.4 28%; for log k: logarithm of capacity factor, HPLC C18, MeOH 72%/H2O 28%. The gist of the method: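 Symmetry C18 column at 40 °C, isocratic MeOH 72% with 28% water for capacity factor k, or with 28% acetate-buffered saline pH 7.4 or 6.5 for D7.4/D6.5. UV 210 nm; dead time from KI. k and D calculated as (tR − tD)/tD; triplicate runs.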

For series [8], the system named is human monocytic leukemia cell line THP-1. Nature of the series: In vitro cell viability analysis (CCK-8). In kind it is cell-based. As to conditions: ± SD, n = 6, medium with 10% FBS, 24 h. The gist of the method: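 THP-1 cells in RPMI 1640 with 10% FBS exposed to DMSO-dissolved compounds for 24 h at 37 °C, 5% CO2, in complete medium. Viability read by CCK-8.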

Series [9] relates to vancomycin-resistant E. faecalis VRE 368. Nature of the series: In vitro antibacterial evaluation, MIC by microtitration broth method. As to conditions: Enterococcus faecalis, 24 h.
In series [10] the test system is Staphylococcus aureus ATCC 29213. Nature of the series: Determination of minimum bactericidal concentrations (agar aliquot subculture). To be noted: ATCC29213.
The subject of a further series is M. smegmatis ATCC 700084. Nature of the series: In vitro antimycobacterial evaluation, MIC (broth dilution micro-method). The class given is cell-based, Mycobacterium smegmatis. On the technique in general: Broth dilution looks for growth in wells or tubes with falling amounts of substance.
Series [11] concerns methicillin-resistant S. aureus SA 630. As to the kind of experiment: In vitro antibacterial evaluation, MIC by microtitration broth method. As to conditions: Staphylococcus aureus, 24 h.
Series [12] has as its system vancomycin-resistant E. faecalis VRE 725B. Described as above. As to conditions: Enterococcus faecalis, 24 h.
Series [13] has as its system methicillin-resistant S. aureus 63718. As to the kind of experiment: Determination of minimum bactericidal concentrations (agar aliquot subculture). To be noted: Staphylococcus aureus.
The subject of series [14] is Enterococcus faecalis ATCC 29212. The series is described as above. To be noted: ATCC29212.
Series [15] has as its system methicillin-resistant S. aureus SA 3202. As to the kind of experiment: In vitro antibacterial evaluation, MIC by microtitration broth method. As to conditions: Staphylococcus aureus, 24 h.
For series [16], the system named is Enterococcus faecalis ATCC 29212. The series is described as above. As to conditions: ATCC29212, 24 h.
Series [17] concerns vancomycin-resistant E. faecalis VRE 368. Nature of the series: Determination of minimum bactericidal concentrations (agar aliquot subculture). As to conditions: Enterococcus faecalis.
Series [18] has as its system Mycobacterium tuberculosis H37Ra/ATCC 25177. Nature of the series: In vitro antimycobacterial evaluation, MIC (alamarBlue). To be noted: MT; 14 days, 37 °C.
Series [19] deals with methicillin-resistant S. aureus SA 630. Nature of the series: Determination of minimum bactericidal concentrations (agar aliquot subculture). To be noted: Staphylococcus aureus.
A further series has as its system S. aureus ATCC 29123. As to the kind of experiment: Crystal violet uptake (membrane permeability). To be noted: 4× MIC, 1 h; compared to growth control and 1% Tween 20.
In the next series the test system is Bacillus cereus. As to conditions: cited from earlier work.
In another series the test system is M. smegmatis. To be noted: cited from earlier work.
Another series relates to Clostridium perfringens. To be noted: cited from earlier work.
In a further series the test system is Mycobacterium kansasii. As to conditions: cited from earlier work.
The test system of series [20] is methicillin-resistant S. aureus 63718. On the set-up: method as in PMID 26079401. To be noted: MRSA 63718 (VA2-MRSA); cited from earlier work.
The mark [21] stands for this setting: Mycolicibacterium smegmatis, ATCC700084, 72 h.

`CSCC[C@H](NC(=O)c1cc(Cl)ccc1O)C(=O)Nc1ccc(C(F)(F)F)cc1` [3e, 5-Chloro-2-hydroxy-N-[(2S)-4-(methylsulfanyl)-1-oxo-1-{[4-(trifluoromethyl)phenyl]amino}butan-2-yl]benzamide]: the MBC was 35.8 µM (≈ 16 µg/mL) in [1]; 35.8 µM (≈ 16 µg/mL) in series [4]; 8.95 µM (≈ 4 µg/mL) in [5]; 2.24 µM (≈ 1 µg/mL) in series [10]; 8.95 µM (≈ 4 µg/mL) in [13]; 35.8 µM (≈ 16 µg/mL) in series [14]. The figures for the MBC in series [17] and in [19] were 35.8 µM (≈ 16 µg/mL) and 8.95 µM (≈ 4 µg/mL), respectively. In addition, in the series on S. aureus ATCC 29213, the “Conc.: lowest multiple of MBC with at least 70% inhibition of S. aureus viability” value was 2× MIC (2× MBC). The “Conc.: lowest multiple of MIC with at least 70% inhibition of S. aureus viability” value in the series on S. aureus ATCC 29213 is given as 2× MIC (2× MBC). Moreover, the “S. aureus Viability Inhibition” value in the series with S. aureus ATCC 29213 (at 2× MIC (2× MBC)) is 94% and 94.6%. Further, the MIC in [2] is 35.8 µM (≈ 16 µg/mL); in [3] it was 8.95 µM (≈ 4 µg/mL); in series [6] it was 2.24 µM (≈ 1 µg/mL); in [9] it was 17.9 µM (≈ 8 µg/mL); in the series with M. smegmatis ATCC 700084 (MS, three days, 37 °C) it was 35.8 n.d. µM; against M. smegmatis ATCC 700084 (setting [21]) it was 35.8 µM (≈ 16 µg/mL). The MIC is 4.48 µM (≈ 2 µg/mL) in [11]; 35.8 µM (≈ 16 µg/mL) in series [12]; 8.95 µM (≈ 4 µg/mL) in series [15]; 17.9 µM (≈ 8 µg/mL) in series [16]; 35.8 µM and 35.8 n.d. µM in series [18]. Moreover, the “log D6.5” value in series [7] turned out to be 1.021. In addition, in [7], the “log D7.4” value was found to be 0.963. In [7], this compound yielded a log k of 1.076. The same compound had an IC50 in [8] of more than 10 µM. Also, the “effect on plasma membrane permeability (crystal violet uptake)” value in the series with S. aureus ATCC 29123 is listed as “did not affect plasma membrane permeability”.

For `CC(C)[C@H](NC(=O)c1cc(Cl)ccc1O)C(=O)Nc1ccc(C(F)(F)F)cc1` [3c, 5-Chloro-2-hydroxy-N-[(2S)-3-methyl-1-oxo-1-{[4-(trifluoromethyl)phenyl]amino}butan-2-yl]benzamide], the MBC was determined as 38.6 µM (≈ 16 µg/mL) in series [1]; 38.6 µM (≈ 16 µg/mL) in series [4]; 4.82 µM (≈ 2 µg/mL) in series [5]; 4.82 µM (≈ 2 µg/mL) in series [10]; 9.64 µM (≈ 4 µg/mL) in series [13]; 38.6 µM (≈ 16 µg/mL) in series [14]. In addition, the MBC in series [17] was found to be 38.6 µM (≈ 16 µg/mL); in [19] it was 4.82 µM (≈ 2 µg/mL). Moreover, the MIC with Bacillus cereus is 2.41 µM (≈ 1 µg/mL); in [2], 38.6 µM (≈ 16 µg/mL); in [3] it was 4.82 µM (≈ 2 µg/mL); in the series on M. smegmatis, 77.1 µM (≈ 32 µg/mL); in series [6], 2.41 µM (≈ 1 µg/mL); in series [9], 38.6 µM (≈ 16 µg/mL). The MIC in the series on Clostridium perfringens is 4.82 µM (≈ 2 µg/mL); with M. smegmatis ATCC 700084 (setting [21]), 77.1 µM (≈ 32 µg/mL); in [11], 4.82 µM (≈ 2 µg/mL); in series [12], 38.6 µM (≈ 16 µg/mL); in [15] it was 4.82 µM (≈ 2 µg/mL); in the series with Mycobacterium kansasii, 38.6 µM (≈ 16 µg/mL). For the same compound, the MIC in series [16] was 38.6 µM (≈ 16 µg/mL); in series [18] it was 77.1 n.d. µM. Further, the “log D6.5” value in [7] came to 0.973. In addition, the “log D7.4” value in [7] is 0.934. Moreover, the log k in series [7] is listed as 1.081. Further, in [8], the IC50 was more than 10 µM.

Regarding `CC(C)C[C@H](NC(=O)c1cc(Cl)ccc1O)C(=O)Nc1ccc(C(F)(F)F)cc1` [3f], the MBC was 18.7 µM (≈ 8.02 µg/mL) in series [1]; 37.3 µM (≈ 16 µg/mL) in series [4]; 1.17 µM (≈ 0.502 µg/mL) in series [5]; 1.17 µM (≈ 0.502 µg/mL) in series [10]; 0.07 µM (≈ 0.03 µg/mL) in [13]; 9.33 µM (≈ 4 µg/mL) in series [14]. Moreover, the MBC in series [17] is 18.7 µM (≈ 8.02 µg/mL); in series [19], 1.17 µM (≈ 0.502 µg/mL). Further, the “Conc.: lowest multiple of MBC with at least 70% inhibition of S. aureus viability” value with S. aureus ATCC 29213 was 1× MIC (1× MBC). Besides, the “Conc.: lowest multiple of MIC with at least 70% inhibition of S. aureus viability” value in the series with S. aureus ATCC 29213 is on record as 1× MIC (1× MBC). In the series with S. aureus ATCC 29213 (at 1× MIC (1× MBC)), the “S. aureus Viability Inhibition” value is given as 95.3%. In addition, the “viability of bacterial cells” value in the series on S. aureus ATCC 29213 (at their MIC value or below) was “less than 70%”. Also, the MIC in series [3] is 0.07 µM (≈ 0.03 µg/mL); in series [6], 1.17 µM (≈ 0.502 µg/mL); in [9] it was 9.33 µM (≈ 4 µg/mL); against M. smegmatis ATCC 700084 (MS, three days, 37 °C), 18.7 n.d. µM; with M. smegmatis ATCC 700084 (setting [21]), 18.7 µM (≈ 8.02 µg/mL); in series [11] it was 1.17 µM (≈ 0.502 µg/mL). The MIC in series [12] was 4.66 µM (≈ 2 µg/mL); in series [15] it was 1.17 µM (≈ 0.502 µg/mL); in series [16], 4.66 µM (≈ 2 µg/mL); in series [18] it was 18.7 µM and 18.7 n.d. µM. Further, the “log D6.5” value in series [7] is recorded as 1.256. The “log D7.4” value in series [7] stood at 1.161. Besides, in [7], the log k worked out at 1.266. This compound returned an IC50 in series [8] of 1.9 ± 1.1 µM. In addition, the “effect on plasma membrane permeability (crystal violet uptake)” value in the series with S. aureus ATCC 29123 is given as “did not affect plasma membrane permeability”.

With `CN[C@H](CC(C)C)C(=O)N[C@H]1C(=O)N[C@@H](CC(N)=O)C(=O)N[C@H]2C(=O)N[C@H]3C(=O)N[C@H](C(=O)N[C@H](C(=O)O)c4cc(O)cc(O)c4-c4cc3ccc4O)[C@H](O)c3ccc(c(Cl)c3)Oc3cc2cc(c3O[C@@H]2O[C@H](CO)[C@@H](O)[C@H](O)[C@H]2O[C@H]2C[C@](C)(N)[C@H](O)[C@H](C)O2)Oc2ccc(cc2Cl)[C@H]1O` [vancomycin], in series [20], the MIC was 2 µg/mL (≈ 1.38 µM).
